Experimental data taken from patent publication US8003649B2 (AstraZeneca AB, priority 2007, dated 2011).

Tests used:
isolated rat AR-LBD = molecular target: T1, isolated rat AR-LBD (Rattus norvegicus, UniProt P15207); experiment: Androgen Receptor Ligand Binding Domain competitive binding assay, Fluorescence Polarisation (PolarScreen); details: 50% reduction in tracer compound binding to AR-LBD; read-out: Androgen Receptor FP Ligand-Binding Assay IC50/μM
T1 construct: purchased Invitrogen PV4293
T1 sequence (P15207 651-882 limits assumed): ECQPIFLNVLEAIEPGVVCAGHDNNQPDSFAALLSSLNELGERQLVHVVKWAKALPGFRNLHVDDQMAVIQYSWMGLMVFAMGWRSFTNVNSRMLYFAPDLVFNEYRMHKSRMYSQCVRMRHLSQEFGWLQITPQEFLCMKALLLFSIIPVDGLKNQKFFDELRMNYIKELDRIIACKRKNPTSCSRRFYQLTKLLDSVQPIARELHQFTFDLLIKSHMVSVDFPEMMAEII
Experimental: b) Androgen Receptor—Ligand Binding Domain Competitive Binding Assay
(§1) The ability of compounds to bind to isolated Androgen Receptor Ligand binding domain (AR-LBD) was assessed in competition assays using either a Fluorescence Polarisation (FP) or a LanthaScreen™ Time-Resolved Fluorescence Resonance Energy Transfer (TR-FRET) detection end-point.
For the FP test, an assay test kit was purchased from Invitrogen and used to measure compound binding to the isolated rat AR-LBD which shares 100% sequence identity to the human AR-LBD. The Invitrogen PolarScreen™ Androgen Receptor Competitor Assay Red (Product Code No. PV4293), is a fluorescence polarisation (FP)-based competition assay which measures if test compound can displace a fluorescently-labelled tracer compound. If the test compound binds to the AR-LBD it will prevent the formation of the receptor/tracer complex, which will result in a low polarisation value. […] The assay was performed as essentially described in the Invitrogen method with the exception that the final assay volume was 12 μl and this required an appropriate low volume black 384 well microtitre plate. Compounds were dosed directly from a compound source microplate containing serially diluted compound (4 wells containing 10 mM, […], 1 μM and 10 nM final compound respectively) to an assay microplate using the Labcyte Echo 550. The Echo 550 is a liquid handler that uses acoustic technology to perform direct microplate-to-microplate transfers of DMSO compound solutions and the system can be programmed to transfer multiple small nL volumes of compound from the different source plate wells to give the desired serial dilution of compound in the assay which is then back-filled to normalise the DMSO concentration across the dilution range. FP dose response data obtained with each compound was exported into a suitable software package (such as Origin) to perform curve fitting analysis. Competitive AR binding was expressed as an IC50 value. This was determined by calculation of the concentration of compound that was required to give a 50% reduction in tracer compound binding to AR-LBD.

Androgen Receptor (AR) = molecular target: T2, Androgen Receptor (AR) (Homo sapiens, UniProt P10275, T878A); experiment: LNCaP Androgen Receptor Down-regulation Cell Assay (immunofluorescence end point); type: cell-based; details: LNCaP prostate carcinoma cells, compound incubation 20-22 hours, 50% reduction of the AR signal; read-out: Androgen Receptor Down-regulation Assay (a) IC50/μM
T2 construct: cell based immuno-fluorescence assay using the LNCaP prostate epithelial cell line; endogenous in cells; host or cells: LNCaP clone FGC (ATCC CRL-1740)
T2 sequence (P10275 1-920 T878A): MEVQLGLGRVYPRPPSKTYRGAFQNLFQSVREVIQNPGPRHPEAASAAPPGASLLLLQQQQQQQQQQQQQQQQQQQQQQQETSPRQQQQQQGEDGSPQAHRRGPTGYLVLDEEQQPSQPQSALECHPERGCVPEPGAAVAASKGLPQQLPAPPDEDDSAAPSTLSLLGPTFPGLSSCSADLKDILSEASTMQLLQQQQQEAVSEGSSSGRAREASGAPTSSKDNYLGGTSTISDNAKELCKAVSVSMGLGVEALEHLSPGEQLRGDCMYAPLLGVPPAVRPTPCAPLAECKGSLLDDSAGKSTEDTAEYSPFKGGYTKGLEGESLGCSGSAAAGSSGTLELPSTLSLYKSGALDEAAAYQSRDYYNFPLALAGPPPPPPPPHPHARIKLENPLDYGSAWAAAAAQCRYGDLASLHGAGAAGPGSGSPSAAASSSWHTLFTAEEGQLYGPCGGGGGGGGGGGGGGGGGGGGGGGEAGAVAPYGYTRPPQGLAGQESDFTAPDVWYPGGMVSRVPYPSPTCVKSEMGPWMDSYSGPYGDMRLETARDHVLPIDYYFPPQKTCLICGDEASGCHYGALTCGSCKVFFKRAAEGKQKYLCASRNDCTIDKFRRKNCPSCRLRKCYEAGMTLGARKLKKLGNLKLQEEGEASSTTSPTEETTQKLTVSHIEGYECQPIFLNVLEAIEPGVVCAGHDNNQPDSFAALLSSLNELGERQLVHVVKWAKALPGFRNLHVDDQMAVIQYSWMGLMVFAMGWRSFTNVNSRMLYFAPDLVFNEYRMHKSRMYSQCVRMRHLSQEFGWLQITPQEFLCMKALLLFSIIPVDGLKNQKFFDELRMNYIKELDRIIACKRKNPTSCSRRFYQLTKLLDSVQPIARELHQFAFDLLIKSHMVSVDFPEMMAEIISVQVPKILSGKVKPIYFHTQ
Outline: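 LNCaP cells in medium with 5% charcoal-stripped FBS were plated overnight, then treated with a compound dilution series for 20-22 h at 37° C. After fixation, permeabilisation and immunostaining, AR-associated green fluorescence was quantified by laser-scanning microplate cytometry; AR down-regulation expressed as IC50 from fitted dose-response curves.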

rat GST-tagged AR-LBD = molecular target: T3, rat GST-tagged AR-LBD (Rattus norvegicus, UniProt P15207); experiment: LanthaScreen TR-FRET AR Binding Assay; details: n = 2; 12-point concentration response up to 100 μM
T3 construct: purchased Invitrogen
T3 sequence (P15207 651-882 limits assumed): T1 sequence (P15207 651-882 limits assumed)
Experimental: as §1
For LanthaScreen™ TR-FRET, a suitable fluorophore (Product code PV4294) and rat GST-tagged AR-LBD were purchased from Invitrogen and used to measure compound binding. The assay principle is that AR-LBD is added to a fluorescent ligand to form a receptor/fluorophore complex. A terbium-labelled anti-GST antibody is used to indirectly label the receptor by binding to a GST tag, and competitive binding is detected by a test compounds' ability to displace the fluorescent ligand resulting in a loss of TR-FRET signal between the Tb-anti-GST antibody and the tracer. The assay was performed as follows with all reagent additions carried out using the Thermo Scientific Matrix PlateMate:— • 1. […]
Compounds were dosed directly from a compound source microplate containing serially diluted compound (4 wells containing 10 mM, 0.1 mM, 1 μM and 10 nM final compound respectively) to an assay microplate using the Labcyte Echo 550. […] Competitive AR binding was expressed as an IC50 value. This was determined by calculation of the concentration of compound that was required to give a 50% reduction in tracer compound binding to AR-LBD.

| SMILES | IC50 (isolated rat AR-LBD) | DC50 (Androgen Receptor (AR)) | IC50 (rat GST-tagged AR-LBD) |
| --- | --- | --- | --- |
| FC(F)(F)Cc1nnc2ccc(N3CCN(C(c4ccccc4)c4ccccc4)CC3)nn12 [Example 4, 6-(4-benzhydrylpiperazin-1-yl)-3-(2,2,2-trifluoroethyl)-[1,2,4]triazolo[4,3-b]pyridazine] | 20.2 µM | 2.5 µM |  |
| FC(F)(F)c1nnc2ccc(N3CC4CC3CN4Cc3ccccc3)nn12 (centres unmarked) [Example 41, 6-(5-benzyl-2,5-diazabicyclo[2.2.1]heptan-2-yl)-3-(trifluoromethyl)-[1,2,4]triazolo[4,3-b]pyridazine] | 19.6 µM |  |  |
| CS(=O)(=O)c1ccc(CN2CCCN(c3ccc4nnc(C(F)(F)F)n4n3)CC2)cc1 [Example 166, 6-[4-[(4-methylsulfonylphenyl)methyl]-1,4-diazepan-1-yl]-3-(trifluoromethyl)-[1,2,4]triazolo[4,3-b]pyridazine] | 6.09 µM | 0.93 µM |  |
| FC(F)(F)c1ccccc1CN1CCCN(c2ccc3nnc(C(F)(F)F)n3n2)CC1 [Example 174, 3-(trifluoromethyl)-6-[4-[[2-(trifluoromethyl)phenyl]methyl]-1,4-diazepan-1-yl]-[1,2,4]triazolo[4,3-b]pyridazine] | 16.3 µM | 0.94 µM |  |
| Cc1ccccc1CN1CCCN(c2ccc3nnc(C(F)(F)F)n3n2)CC1 [Example 183, 6-[4-[(2-methylphenyl)methyl]-1,4-diazepan-1-yl]-3-(trifluoromethyl)-[1,2,4]triazolo[4,3-b]pyridazine] | 14.4 µM |  |  |
| OC1(c2cccnc2)CCN(c2ccc3nnc(C(F)(F)F)n3n2)CC1 [Example 511, 4-pyridin-3-yl-1-[3-(trifluoromethyl)[1,2,4]triazolo[4,3-b]pyridazin-6-yl]piperidin-4-ol] |  |  | > 100 µM |
| Cn1nccc1CCOc1ccc(C2CCN(c3ccc4nnc(C(F)(F)F)n4n3)CC2)cc1 [Example 513, 6-[4-[4-[2-(1-methyl-1H-pyrazol-5-yl)ethoxy]phenyl]piperidin-1-yl]-3-(trifluoromethyl)[1,2,4]triazolo[4,3-b]pyridazine] |  | 0.24 µM | 1.3 µM |
| CS(=O)(=O)N1CCN(CCCOc2ccc(C3CCN(c4ccc5nnc(C(F)(F)F)n5n4)CC3)cc2)CC1 [Example 855, 6-[4-[4-[3-[4-(methylsulfonyl)piperazin-1-yl]propoxy]phenyl]piperidin-1-yl]-3-(trifluoromethyl)[1,2,4]triazolo[4,3-b]pyridazine] |  | 0.44 µM |  |
| Cn1nccc1CCOc1ccc(N2CCN(c3ccc4nnc(C(F)F)n4n3)CC2)cc1 [Example 856, 3-(difluoromethyl)-6-[4-[4-[2-(1-methyl-1H-pyrazol-5-yl]ethoxy]phenyl]piperazin-1-yl)[1,2,4]triazolo[4,3-b]pyridazine] |  | 2.2 µM |  |
| N#Cc1ccc(S(=O)(=O)N2CCN(c3ccc4nnc(C(F)(F)F)n4n3)CC2)cc1 [Example 857, 4-[4-[3-(trifluoromethyl)-[1,2,4]triazolo[3,4-f]pyridazin-6-yl]piperazin-1-yl]sulfonylbenzonitrile] |  | > 33 µM |  |
| C[C@H](c1ccc(C#N)cc1)N1CCN(c2ccc3nnc(C(F)F)n3n2)CC1 [Example 858, 4-[(1R)-1-[4-[3-(difluoromethyl)-[1,2,4]triazolo[3,4-f]pyridazin-6-yl]piperazin-1-yl]ethyl]benzonitrile] |  | > 33 µM |  |
| CS(=O)(=O)c1cc(F)cc(CN2CCN(c3ccc4nnc(C(F)F)n4n3)CC2)c1 [Example 859, 3-(difluoromethyl)-6-[4-[3-fluoro-5-(methylsulfonyl)benzyl]piperazin-1-yl][1,2,4]triazolo[4,3-b]pyridazine] |  | > 33 µM |  |
| Cn1nccc1CCOc1ccc(C2(O)CCN(c3ccc4nnc(C(F)(F)F)n4n3)CC2)cc1 [Example 860, 4-[4-[2-(1-methyl-1H-pyrazol-5-yl)ethoxy]phenyl]-1-[3-(trifluoromethyl)[1,2,4]triazolo[4,3-b]pyridazin-6-yl]piperidin-4-ol] |  | 0.8 µM |  |
